Assay results published in patent publication US20250000872A1, “FORMULATIONS AND DOSING REGIMENS FOR RIP1 KINASE INHIBITORS FOR TREATING AUTOIMMUNE AND INFLAMMATORY DISEASES” (Eli Lilly and Company, priority 2023, published 2025).

Assays:
OATP1B3 = biological target: T1, OATP1B3 (Homo sapiens, UniProt Q9NPD5); assay: In vitro drug-drug interaction studies: OATP1B3 transporter inhibition; type: in vitro ADME; settings: based upon in vitro studies
T1 sequence (Q9NPD5 1-702): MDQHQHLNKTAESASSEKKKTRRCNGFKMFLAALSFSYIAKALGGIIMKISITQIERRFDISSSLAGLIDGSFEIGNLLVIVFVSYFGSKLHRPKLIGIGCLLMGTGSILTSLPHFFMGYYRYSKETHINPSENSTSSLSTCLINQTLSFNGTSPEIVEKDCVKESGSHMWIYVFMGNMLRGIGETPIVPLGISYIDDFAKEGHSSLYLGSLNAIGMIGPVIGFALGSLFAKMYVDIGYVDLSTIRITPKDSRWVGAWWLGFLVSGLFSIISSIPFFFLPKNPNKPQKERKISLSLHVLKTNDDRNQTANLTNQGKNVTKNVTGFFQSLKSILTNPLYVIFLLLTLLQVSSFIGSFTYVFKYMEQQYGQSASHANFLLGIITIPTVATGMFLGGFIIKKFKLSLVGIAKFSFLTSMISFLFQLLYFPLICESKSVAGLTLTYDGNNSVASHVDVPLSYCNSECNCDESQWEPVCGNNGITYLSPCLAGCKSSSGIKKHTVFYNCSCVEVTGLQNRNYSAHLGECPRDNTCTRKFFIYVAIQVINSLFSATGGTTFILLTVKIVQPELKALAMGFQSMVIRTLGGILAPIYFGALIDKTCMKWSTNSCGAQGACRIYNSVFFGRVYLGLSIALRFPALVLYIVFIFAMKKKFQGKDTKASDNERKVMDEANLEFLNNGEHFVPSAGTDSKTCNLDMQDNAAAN

[1] = Yan et al. ASCPT 2021 poster, cited from earlier work
CYP3A5 = assay: In vitro drug-drug interaction studies: CYP3A5 induction; type: in vitro ADME; settings: based upon in vitro studies
P-gp = P-gp (Homo sapiens, UniProt P08183); assay: In vitro drug-drug interaction studies: P-gp transporter inhibition; type: in vitro ADME; settings: based upon in vitro studies
CYP3A = assay: Preliminary in vitro CYP3A induction data; type: in vitro ADME
From the text: Investigators should be aware of participants' concomitant use of CYP3A substrates.

CYP2D6 = CYP2D6 (Homo sapiens, UniProt P10635); assay: In vitro drug-drug interaction studies: CYP2D6 inhibition; type: in vitro ADME; settings: based upon in vitro studies
[2] = Rabbit embryofetal development study; type: in vivo; settings: female, rabbit, in vivo, po; plasma toxicokinetics on Gestational Day 19, 120 mg/kg/day; read-out: AUC0-24 at rabbit EFD NOEL
rabbits = assay: Rabbit embryofetal development study; type: in vivo
[3] = Repeat-dose toxicity studies in monkeys (up to 9-month); type: in vivo; settings: monkey, in vivo
monkeys = assay: as above; type: in vivo
BCRP = biological target: T2, BCRP (Homo sapiens, UniProt Q9UNQ0); assay: In vitro drug-drug interaction studies: BCRP transporter inhibition; type: in vitro ADME; settings: based upon in vitro studies
T2 sequence (Q9UNQ0 1-655): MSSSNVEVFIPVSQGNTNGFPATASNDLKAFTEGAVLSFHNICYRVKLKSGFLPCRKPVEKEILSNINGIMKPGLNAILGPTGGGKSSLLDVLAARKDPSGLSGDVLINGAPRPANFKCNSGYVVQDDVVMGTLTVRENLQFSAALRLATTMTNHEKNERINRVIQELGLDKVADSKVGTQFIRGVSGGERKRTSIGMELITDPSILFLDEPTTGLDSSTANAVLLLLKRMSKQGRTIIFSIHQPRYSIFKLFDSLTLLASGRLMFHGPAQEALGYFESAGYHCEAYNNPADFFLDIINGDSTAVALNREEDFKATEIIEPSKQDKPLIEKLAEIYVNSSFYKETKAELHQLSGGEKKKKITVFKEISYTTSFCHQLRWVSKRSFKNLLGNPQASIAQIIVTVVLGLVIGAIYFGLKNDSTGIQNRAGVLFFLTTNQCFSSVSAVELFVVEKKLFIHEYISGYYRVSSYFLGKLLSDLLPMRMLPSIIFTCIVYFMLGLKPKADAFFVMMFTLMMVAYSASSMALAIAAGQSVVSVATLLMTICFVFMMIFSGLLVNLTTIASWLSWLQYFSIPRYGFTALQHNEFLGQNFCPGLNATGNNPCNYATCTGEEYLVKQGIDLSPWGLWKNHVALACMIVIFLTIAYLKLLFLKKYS

[4] = AUC in animals/(predicted) AUC in humans

Chain of CYP2D6 (P10635 whole entry): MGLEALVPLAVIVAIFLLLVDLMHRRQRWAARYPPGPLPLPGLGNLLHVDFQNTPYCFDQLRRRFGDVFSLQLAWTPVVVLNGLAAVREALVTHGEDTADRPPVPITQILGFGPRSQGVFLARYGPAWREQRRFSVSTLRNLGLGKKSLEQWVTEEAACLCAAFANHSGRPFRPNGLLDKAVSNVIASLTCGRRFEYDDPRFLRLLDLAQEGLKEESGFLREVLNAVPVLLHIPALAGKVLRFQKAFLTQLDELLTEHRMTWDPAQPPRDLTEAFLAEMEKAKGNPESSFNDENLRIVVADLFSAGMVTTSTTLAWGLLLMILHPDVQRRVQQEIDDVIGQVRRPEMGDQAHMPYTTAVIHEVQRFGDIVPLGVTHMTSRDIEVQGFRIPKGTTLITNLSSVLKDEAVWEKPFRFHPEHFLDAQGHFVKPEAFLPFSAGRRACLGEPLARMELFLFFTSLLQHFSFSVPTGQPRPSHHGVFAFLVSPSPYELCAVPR
Chain of P-gp (P08183 whole entry): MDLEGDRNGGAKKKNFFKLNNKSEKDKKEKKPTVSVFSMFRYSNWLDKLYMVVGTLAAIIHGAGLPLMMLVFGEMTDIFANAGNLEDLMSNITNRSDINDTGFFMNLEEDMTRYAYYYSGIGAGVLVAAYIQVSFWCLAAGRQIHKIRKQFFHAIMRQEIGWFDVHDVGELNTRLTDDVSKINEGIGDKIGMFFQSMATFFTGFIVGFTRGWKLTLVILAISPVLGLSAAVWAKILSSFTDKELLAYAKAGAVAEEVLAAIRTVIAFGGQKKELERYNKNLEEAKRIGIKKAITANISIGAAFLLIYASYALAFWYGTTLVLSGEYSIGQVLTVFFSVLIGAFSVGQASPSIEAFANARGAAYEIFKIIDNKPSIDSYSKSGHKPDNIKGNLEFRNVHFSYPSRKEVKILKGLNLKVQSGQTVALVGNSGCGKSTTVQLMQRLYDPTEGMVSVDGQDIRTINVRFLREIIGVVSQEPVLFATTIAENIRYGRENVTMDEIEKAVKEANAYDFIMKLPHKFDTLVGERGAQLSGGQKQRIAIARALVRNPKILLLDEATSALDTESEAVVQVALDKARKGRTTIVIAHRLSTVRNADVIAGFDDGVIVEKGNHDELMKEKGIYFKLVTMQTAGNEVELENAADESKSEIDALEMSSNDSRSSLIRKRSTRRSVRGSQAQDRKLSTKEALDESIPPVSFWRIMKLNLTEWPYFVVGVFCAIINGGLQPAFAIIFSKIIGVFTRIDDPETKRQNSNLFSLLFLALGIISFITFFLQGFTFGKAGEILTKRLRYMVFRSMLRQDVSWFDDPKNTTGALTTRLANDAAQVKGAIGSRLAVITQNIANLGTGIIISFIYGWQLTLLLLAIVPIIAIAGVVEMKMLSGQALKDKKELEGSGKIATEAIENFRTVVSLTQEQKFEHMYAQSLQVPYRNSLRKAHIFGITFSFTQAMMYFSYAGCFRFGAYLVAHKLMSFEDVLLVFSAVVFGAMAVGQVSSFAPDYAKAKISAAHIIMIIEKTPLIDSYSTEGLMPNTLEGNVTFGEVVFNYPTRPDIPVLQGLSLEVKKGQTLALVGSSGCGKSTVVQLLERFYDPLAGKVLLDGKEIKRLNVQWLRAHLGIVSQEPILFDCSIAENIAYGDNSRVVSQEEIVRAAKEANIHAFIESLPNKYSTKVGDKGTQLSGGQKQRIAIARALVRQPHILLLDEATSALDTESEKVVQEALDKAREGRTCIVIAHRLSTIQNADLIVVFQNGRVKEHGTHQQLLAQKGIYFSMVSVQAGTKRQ

Structure (SMILES): CN1C(=O)[C@@H](NC(=O)c2n[nH]c(Cc3ccccc3)n2)COc2ccc(C#CC(C)(C)O)cc21 [Compound I, (S)-5-benzyl-N-(7-(3-hydroxy-3-methylbut-1-yn-1-yl)-5-methyl-4-oxo-2,3,4,5-tetrahydrobenzo[b][1,4]oxazepin-3-yl)-1H-1,2,4-triazole-3-carboxamide]
- inhibition of substrates of OATP1B3 transporter (OATP1B3): may also inhibit
- safety and tolerability ([1]; following single and multiple doses): generally safe, and well tolerated
- pharmacokinetics linearity ([1]; tested dose range up to 1000 mg): linear pharmacokinetics
- induction of CYP3A5 (CYP3A5): may induce
- inhibition of substrates of P-gp transporter (P-gp): may also inhibit
- induction of CYP3A (CYP3A): weak inducer
- inhibition of drugs metabolized by CYP2D6 (CYP2D6): may inhibit
- AUC(0-t) [2]: 464 µg·h/mL
- Margin of Safety, rabbit EFD NOEL vs human 50 mg (rabbits; [4]): 29 X
- Margin of Safety, rabbit EFD NOEL vs human 125 mg (rabbits; [4]): 12 X
- developmental and reproductive toxicology outcome, rabbits (rabbits; concerns for women of childbearing potential): did not reveal any concerns
- Rabbit EFD NOEL dose (rabbits; rabbit embryofetal development study): 120 mg/kg/day
- NOAEL at 9 months [3]: 150 mg/kg
- AUC(0-t) ([3]; po, plasma toxicokinetics on Day 273, 150 mg/kg/day, read-out: AUC0-24 at monkey NOAEL): 278 µg·h/mL
- Margin of Safety, monkey NOAEL vs human 50 mg (monkeys; [4]): 17 X
- Margin of Safety, monkey NOAEL vs human 125 mg (monkeys; [4]): 7 X
- doses with mortality related to secondary infections (monkeys; monkeys, toxicology studies up to 9 months): ≥ 250 mg/kg/day
- inhibition of substrates of BCRP transporter (BCRP): may also inhibit
